Experimental findings from ChEMBL document CHEMBL5465560, “Selectivity Literature for EUbOPEN Chemogenomic Library” (2024) are described below.

Each structure is given as a SMILES string. Bounds are passed on as bounds.

Assay [1] concerns the target Serine/threonine-protein kinase PLK3 (Homo sapiens, UniProt Q9H4B4). Kind of assay: Selectivity interaction (KinomeScan (DiscoverX)) EUB0000666a PLK3. Conditions: at 10 µM.
The target of assay [2] is Homeodomain-interacting protein kinase 3 (Homo sapiens, UniProt Q9H422). Kind of assay: Selectivity interaction (KinomeScan (DiscoverX)) EUB0000655a HIPK3. The following applies: at 10 µM.
Sequence of Homeodomain-interacting protein kinase 3 (Q9H422 whole entry, looked up): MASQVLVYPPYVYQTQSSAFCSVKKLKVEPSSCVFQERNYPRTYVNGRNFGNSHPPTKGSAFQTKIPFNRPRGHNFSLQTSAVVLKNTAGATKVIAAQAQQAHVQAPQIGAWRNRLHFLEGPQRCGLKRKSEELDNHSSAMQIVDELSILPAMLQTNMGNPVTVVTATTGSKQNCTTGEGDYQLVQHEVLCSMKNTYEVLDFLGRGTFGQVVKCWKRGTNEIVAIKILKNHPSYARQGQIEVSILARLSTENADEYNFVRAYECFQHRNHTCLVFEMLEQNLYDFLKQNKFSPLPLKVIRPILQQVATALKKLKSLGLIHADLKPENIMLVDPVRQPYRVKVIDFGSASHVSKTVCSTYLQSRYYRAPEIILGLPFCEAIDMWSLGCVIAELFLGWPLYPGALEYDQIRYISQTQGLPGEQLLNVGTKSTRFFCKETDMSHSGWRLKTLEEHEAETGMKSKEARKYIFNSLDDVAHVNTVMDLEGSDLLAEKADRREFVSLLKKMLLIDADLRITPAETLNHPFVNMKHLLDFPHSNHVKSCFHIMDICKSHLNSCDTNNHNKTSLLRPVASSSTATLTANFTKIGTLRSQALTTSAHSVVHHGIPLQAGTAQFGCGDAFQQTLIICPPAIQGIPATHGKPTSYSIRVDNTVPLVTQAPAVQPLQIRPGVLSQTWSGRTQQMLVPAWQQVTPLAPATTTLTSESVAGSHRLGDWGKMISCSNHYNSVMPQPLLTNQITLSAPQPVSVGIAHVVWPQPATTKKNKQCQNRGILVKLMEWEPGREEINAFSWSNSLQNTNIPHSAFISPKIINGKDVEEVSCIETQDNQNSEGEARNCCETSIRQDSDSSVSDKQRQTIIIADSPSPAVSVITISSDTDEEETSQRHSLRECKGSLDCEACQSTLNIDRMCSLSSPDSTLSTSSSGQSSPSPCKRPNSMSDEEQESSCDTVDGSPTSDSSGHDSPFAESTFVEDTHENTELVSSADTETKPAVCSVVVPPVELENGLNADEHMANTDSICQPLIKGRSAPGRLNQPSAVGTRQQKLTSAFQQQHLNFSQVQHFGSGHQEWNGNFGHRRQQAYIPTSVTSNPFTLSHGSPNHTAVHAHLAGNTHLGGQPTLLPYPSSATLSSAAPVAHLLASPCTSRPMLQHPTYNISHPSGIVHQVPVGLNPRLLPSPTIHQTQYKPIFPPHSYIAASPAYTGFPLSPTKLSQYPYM
For assay [3], the target named is T1, Ephrin type-B receptor 6 (Homo sapiens) (UniProt O15197).
T1 sequence (whole entry): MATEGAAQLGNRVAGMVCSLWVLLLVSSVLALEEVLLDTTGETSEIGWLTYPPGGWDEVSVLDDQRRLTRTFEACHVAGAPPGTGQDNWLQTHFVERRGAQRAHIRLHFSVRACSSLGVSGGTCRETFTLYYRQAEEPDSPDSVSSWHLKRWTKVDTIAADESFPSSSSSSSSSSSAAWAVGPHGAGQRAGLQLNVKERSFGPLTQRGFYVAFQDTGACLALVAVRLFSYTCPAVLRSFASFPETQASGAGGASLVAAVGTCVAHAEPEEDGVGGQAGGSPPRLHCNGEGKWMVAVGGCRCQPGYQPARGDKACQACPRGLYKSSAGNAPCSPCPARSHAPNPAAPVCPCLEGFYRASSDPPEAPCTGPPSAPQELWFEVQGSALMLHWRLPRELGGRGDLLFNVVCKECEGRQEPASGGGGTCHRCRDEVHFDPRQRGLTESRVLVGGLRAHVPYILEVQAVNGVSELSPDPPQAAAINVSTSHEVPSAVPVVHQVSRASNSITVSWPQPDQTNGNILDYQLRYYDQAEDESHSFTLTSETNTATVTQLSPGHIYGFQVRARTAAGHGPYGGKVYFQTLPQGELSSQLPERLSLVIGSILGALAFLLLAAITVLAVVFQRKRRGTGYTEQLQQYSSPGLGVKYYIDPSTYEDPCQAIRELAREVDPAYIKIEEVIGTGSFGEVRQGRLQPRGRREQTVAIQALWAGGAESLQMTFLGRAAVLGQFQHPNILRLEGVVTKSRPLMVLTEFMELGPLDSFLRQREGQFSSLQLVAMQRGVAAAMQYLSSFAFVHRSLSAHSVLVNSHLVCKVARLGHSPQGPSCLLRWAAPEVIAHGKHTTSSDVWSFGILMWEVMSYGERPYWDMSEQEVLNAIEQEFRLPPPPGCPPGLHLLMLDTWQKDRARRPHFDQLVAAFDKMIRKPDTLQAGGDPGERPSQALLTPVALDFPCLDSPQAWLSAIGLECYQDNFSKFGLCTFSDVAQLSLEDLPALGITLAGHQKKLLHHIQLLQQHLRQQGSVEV
The assay is described as follows: Selectivity interaction (KinomeScan (DiscoverX)) EUB0001049a EPHB6. The following applies: at 1 µM.

In assay [4] the target is Vascular endothelial growth factor receptor 3 (Homo sapiens, UniProt P35916). Kind of assay: Selectivity interaction (ProQinase) EUB0000171b FLT4.
Sequence of Vascular endothelial growth factor receptor 3 (P35916 whole entry): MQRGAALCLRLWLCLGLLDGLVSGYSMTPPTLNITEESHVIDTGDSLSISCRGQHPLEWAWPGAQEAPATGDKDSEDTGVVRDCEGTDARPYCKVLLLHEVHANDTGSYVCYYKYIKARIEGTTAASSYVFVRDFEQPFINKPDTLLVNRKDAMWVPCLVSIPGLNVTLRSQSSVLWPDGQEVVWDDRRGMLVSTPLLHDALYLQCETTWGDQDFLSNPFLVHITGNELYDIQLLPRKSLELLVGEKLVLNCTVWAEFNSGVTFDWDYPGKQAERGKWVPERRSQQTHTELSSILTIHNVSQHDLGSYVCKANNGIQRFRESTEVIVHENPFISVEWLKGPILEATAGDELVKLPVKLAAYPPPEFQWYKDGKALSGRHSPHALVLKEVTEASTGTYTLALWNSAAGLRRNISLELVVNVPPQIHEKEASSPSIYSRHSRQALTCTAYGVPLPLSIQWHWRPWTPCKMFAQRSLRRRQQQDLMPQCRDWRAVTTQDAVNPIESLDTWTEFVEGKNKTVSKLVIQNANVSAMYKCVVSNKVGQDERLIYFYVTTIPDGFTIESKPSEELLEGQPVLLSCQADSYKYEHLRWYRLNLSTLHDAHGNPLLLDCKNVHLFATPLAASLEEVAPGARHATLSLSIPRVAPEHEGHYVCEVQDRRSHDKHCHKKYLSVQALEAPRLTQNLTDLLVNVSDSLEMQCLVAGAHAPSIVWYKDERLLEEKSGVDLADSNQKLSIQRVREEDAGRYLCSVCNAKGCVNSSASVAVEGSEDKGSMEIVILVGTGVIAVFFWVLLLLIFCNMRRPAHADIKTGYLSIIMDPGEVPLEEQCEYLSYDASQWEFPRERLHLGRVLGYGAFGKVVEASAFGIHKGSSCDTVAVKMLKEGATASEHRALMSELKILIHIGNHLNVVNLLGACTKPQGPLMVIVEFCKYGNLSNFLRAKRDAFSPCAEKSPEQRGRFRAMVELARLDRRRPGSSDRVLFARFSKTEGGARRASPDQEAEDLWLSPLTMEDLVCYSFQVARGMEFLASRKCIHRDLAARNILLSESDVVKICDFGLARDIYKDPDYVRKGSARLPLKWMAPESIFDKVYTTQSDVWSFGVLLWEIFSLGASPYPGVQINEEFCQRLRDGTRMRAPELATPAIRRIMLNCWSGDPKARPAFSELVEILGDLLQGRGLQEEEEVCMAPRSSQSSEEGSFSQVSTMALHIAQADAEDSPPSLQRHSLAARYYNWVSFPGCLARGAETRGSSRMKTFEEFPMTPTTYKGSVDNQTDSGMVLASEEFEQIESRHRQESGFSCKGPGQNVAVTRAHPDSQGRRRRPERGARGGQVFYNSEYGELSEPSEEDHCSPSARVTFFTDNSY
In assay [5] the target is Bromodomain and WD repeat-containing protein 1 (Homo sapiens) (UniProt Q9NSI6). The assay is described as follows: Selectivity interaction (Human bromodomain panel (DSF assay)) EUB0000233b BRWD1. In general terms: DSF heats the sample and reads unfolding from a dye or from intrinsic fluorescence.
The target of assay [6] is T2, Casein kinase I isoform alpha-like (Homo sapiens) (UniProt Q8N752).
T2 sequence (whole entry): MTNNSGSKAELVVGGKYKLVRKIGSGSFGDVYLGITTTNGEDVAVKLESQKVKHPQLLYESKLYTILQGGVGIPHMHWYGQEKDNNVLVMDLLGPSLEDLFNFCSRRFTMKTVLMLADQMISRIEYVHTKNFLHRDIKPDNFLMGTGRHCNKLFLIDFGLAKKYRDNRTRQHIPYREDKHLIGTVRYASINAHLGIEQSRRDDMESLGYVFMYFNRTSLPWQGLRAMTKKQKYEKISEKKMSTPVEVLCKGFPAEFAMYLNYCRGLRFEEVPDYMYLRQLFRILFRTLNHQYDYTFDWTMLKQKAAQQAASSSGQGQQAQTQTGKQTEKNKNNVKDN
Kind of assay: Selectivity interaction (KinomeScan (DiscoverX)) EUB0000092b CSNK1A1L. The following applies: at 10 µM.

Assay [7] addresses T3, Ephrin type-A receptor 8 (Homo sapiens) (UniProt P29322).
T3 sequence (whole entry): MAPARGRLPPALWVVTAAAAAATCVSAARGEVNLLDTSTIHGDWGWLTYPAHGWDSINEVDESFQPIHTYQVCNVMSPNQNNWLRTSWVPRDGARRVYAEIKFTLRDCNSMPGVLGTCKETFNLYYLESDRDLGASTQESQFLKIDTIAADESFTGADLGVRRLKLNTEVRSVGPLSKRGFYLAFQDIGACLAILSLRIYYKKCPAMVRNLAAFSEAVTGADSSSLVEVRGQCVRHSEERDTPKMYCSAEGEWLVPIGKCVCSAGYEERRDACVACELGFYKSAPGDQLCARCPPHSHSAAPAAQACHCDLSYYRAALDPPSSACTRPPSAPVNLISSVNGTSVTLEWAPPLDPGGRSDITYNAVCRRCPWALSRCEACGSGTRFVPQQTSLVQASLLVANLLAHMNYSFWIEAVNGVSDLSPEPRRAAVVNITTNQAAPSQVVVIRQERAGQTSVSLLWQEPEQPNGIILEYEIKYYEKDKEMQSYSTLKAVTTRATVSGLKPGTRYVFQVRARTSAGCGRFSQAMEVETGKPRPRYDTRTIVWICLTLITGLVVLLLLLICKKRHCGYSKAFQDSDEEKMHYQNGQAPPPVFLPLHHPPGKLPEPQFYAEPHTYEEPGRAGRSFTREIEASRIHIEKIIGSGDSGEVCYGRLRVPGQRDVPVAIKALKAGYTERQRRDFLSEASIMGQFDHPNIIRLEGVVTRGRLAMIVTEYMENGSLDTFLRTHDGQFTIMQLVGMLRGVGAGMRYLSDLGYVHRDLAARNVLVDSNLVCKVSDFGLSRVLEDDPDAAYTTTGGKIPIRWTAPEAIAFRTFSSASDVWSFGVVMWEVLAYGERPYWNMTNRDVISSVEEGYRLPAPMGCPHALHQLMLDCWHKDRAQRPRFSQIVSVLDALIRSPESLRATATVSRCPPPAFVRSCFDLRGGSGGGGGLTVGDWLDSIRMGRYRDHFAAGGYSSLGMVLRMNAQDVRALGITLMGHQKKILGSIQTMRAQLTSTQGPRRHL
The assay is described as follows: Selectivity interaction (KinomeScan (DiscoverX)) EUB0000092b EPHA8. The following applies: at 10 µM.

Sequence of Serine/threonine-protein kinase PLK3 (Q9H4B4 whole entry, looked up): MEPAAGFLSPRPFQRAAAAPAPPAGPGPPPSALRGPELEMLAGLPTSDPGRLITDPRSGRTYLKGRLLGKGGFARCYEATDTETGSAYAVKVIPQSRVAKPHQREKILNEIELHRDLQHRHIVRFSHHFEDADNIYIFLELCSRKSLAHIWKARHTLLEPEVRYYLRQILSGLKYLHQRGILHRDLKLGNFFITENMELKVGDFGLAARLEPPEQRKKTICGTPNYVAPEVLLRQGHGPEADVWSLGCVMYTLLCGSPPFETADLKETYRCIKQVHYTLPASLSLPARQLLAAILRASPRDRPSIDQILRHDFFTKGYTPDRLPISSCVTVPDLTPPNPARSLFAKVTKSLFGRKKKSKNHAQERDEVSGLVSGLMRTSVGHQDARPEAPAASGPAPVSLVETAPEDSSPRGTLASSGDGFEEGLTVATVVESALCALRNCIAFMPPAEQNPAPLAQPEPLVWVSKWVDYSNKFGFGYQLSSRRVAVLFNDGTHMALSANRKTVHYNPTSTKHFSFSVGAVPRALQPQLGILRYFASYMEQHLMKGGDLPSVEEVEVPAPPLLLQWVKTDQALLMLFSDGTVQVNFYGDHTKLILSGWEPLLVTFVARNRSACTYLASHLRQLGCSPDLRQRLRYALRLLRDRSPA

Consider `O=C(NOC[C@H](O)CO)c1ccc(F)c(F)c1Nc1ccc(I)cc1F`, for which the % of control in assay [1] turned out to be 100%.
`CN(C)CCOc1ccc(-c2nc(-c3ccncc3)c(-c3ccc4c(c3)CC/C4=N\O)[nH]2)cc1` returned a % of control in assay [2] of 62%.
Compound `COc1cc(Nc2nc(C)cc(-c3cnn4nc(OC)ccc34)n2)cc(C(F)(F)F)c1` came in with a % of control in assay [3] of 78%.
`C=CC(=O)Nc1cccc(C(=O)Nc2ccc(Nc3cc(-c4[nH]c(SC)nc4C)ccn3)cc2)c1`: the values for the % of control in assay [4] (at 1 µM) and in assay [4] (at 5 µM) were 73% and 68%, respectively.
Consider `CN(C)CCCOc1ccc(-c2cc(NCCCn3cccn3)nc(S(C)(=O)=O)n2)cc1`, for which, in assay [5], the dTM is less than 2 K.
Take `CCC(=O)N1CCN(c2ccc(-n3c(=O)ccc4cnc5ccc(-c6cnc7ccccc7c6)cc5c43)cc2C(F)(F)F)CC1`: the % of control was 81% in assay [6] and 71% in assay [7].
